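Following 48 hours of exposure in 96-well plates, responses at five concentrations were used to interpolate endpoints linearly. GI50 = concentration required for 50% inhibition of growth.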 Activity calls are given as the source filed them. No stated cut-off is given here; in the data, active = GI50 up to about 1.1 µM and inactive = higher.
Tests used:
Experiment in all cases: DTP human tumour cell line panel, 48 h
[1] = system: A498
[2] = system: A549
[3] = system: CAKI-1
[4] = system: CCRF-CEM
[5] = system: COLO 205
[6] = system: DLD-1
[7] = system: DMS-114
[8] = system: DMS-273
[9] = system: EKVX
[10] = system: HCC 2998
[11] = system: HCT-116
[12] = system: HCT-15
[13] = system: HL-60
[14] = system: HOP-18
[15] = system: HOP-62
[16] = system: HOP-92
[17] = system: HT-29
[18] = system: IGROV-1
[19] = system: K562
[20] = system: KM-20L2
[21] = system: KM12
[22] = system: LOX IMVI
[23] = system: M19-MEL
[24] = system: MCF7
[25] = system: MOLT-4
[26] = system: Malme-3M
[27] = system: NCI-H226
[28] = system: NCI-H23
[29] = system: NCI-H460
[30] = system: NCI-H522
[31] = system: NCI/ADR-RES
[32] = system: OVCAR-3
[33] = system: OVCAR-4
[34] = system: OVCAR-5
[35] = system: OVCAR-8
[36] = system: RPMI-8226
[37] = system: RXF 393
[38] = system: SF-268
[39] = system: SF-295
[40] = system: SF-539
[41] = system: SK-MEL-28
[42] = system: SK-MEL-2
[43] = system: SK-MEL-5
[44] = system: SK-OV-3
[45] = system: SN12C
[46] = system: SNB-19
[47] = system: SNB-75
[48] = system: SNB-78
[49] = system: SW-620
[50] = system: U-251
[51] = system: UACC-257
[52] = system: UACC-62
[53] = system: UO-31
[54] = system: XF498
[55] = system: 786-0
[56] = system: ACHN
[57] = system: LXFL 529
[58] = system: M14
[59] = system: TK-10

In the case of `Cc1cc(O)c2c(c1)C(=O)c1c(c(O)cc(O)c1-c1c(O)cc(O)c3c1C(=O)c1cc(C)cc(O)c1C3=O)C2=O` [SKYRIN], the GI50 [1] is reported as 14.4 µM (inactive), the GI50 [2] is reported as 8.87 µM (inactive) and the GI50 [3] is reported as 16.8 µM (inactive). The GI50 [4] was 7.6 µM (inactive), the GI50 [5] was 24.8 µM (inactive) and the GI50 [6] was 8.75 µM (inactive). For the same compound, the GI50 [7] was 16.7 µM (inactive), the GI50 [8] was 7.76 µM (inactive) and the GI50 [9] was 11.9 µM (inactive). For the same compound, the GI50 [10] was 11.4 µM (inactive), the GI50 [11] was 8.99 µM (inactive) and the GI50 [12] was 8.61 µM. The GI50 [13] was 7.11 µM (inactive), the GI50 [14] was 10.4 µM (inactive) and the GI50 [15] was 12.4 µM (inactive). For the same compound, the GI50 [16] was 13.1 µM (inactive), the GI50 [17] was 13.1 µM (inactive) and the GI50 [18] was 12.9 µM (inactive). For the same compound, the GI50 [19] was 7.87 µM (inactive), the GI50 [20] was 16.3 µM (inactive) and the GI50 [21] was 9.08 µM (inactive). The GI50 [22] was 12.9 µM (inactive), the GI50 [23] was 17.1 µM (inactive) and the GI50 [24] was 15 µM (inactive). For the same compound, the GI50 [25] was 8.59 µM (inactive), the GI50 [26] was 15 µM (inactive) and the GI50 [27] was 3.07 µM (inactive). The GI50 [28] was 13.1 µM (inactive), the GI50 [29] was 9.08 µM (inactive) and the GI50 [30] was 17.1 µM (inactive). For the same compound, the GI50 [31] was 35.2 µM (inactive), the GI50 [32] was 6.31 µM (inactive) and the GI50 [33] was 10.9 µM (inactive). For the same compound, the GI50 [34] was 38 µM (inactive), the GI50 [35] was 8.26 µM (inactive) and the GI50 [36] was 5.93 µM (inactive). The GI50 [37] was 19.3 µM (inactive), the GI50 [38] was 13.9 µM (inactive) and the GI50 [39] was 9.25 µM (inactive). The GI50 [40] was 10.6 µM (inactive), the GI50 [41] was 11.7 µM (inactive) and the GI50 [42] was 11.5 µM (inactive). The GI50 [43] was 9.44 µM (inactive), the GI50 [44] was 32.4 µM (inactive) and the GI50 [45] was 10.6 µM (inactive). The GI50 [46] was 2.5 µM (inactive), the GI50 [47] was 15.8 µM (inactive) and the GI50 [48] was 26.9 µM (inactive). The GI50 [49] was 14.4 µM (inactive), the GI50 [50] was 8.36 µM (inactive) and the GI50 [51] was 17.5 µM (inactive). The GI50 [52] was 10.4 µM (inactive), the GI50 [53] was 5.26 µM (inactive) and the GI50 [54] was 21.1 µM (inactive).

With `COc1ccc(NC(=O)CC/C(CC(=O)c2ccco2)=N/NC(=O)C(N)=O)cc1` the GI50 [55] was > 100 µM (inactive), the GI50 [1] was 76.4 µM (inactive) and the GI50 [2] was > 100 µM (inactive). The GI50 [56] was > 100 µM (inactive), the GI50 [3] was > 100 µM (inactive) and the GI50 [4] was 63.5 µM (inactive). For the same compound, the GI50 [5] was > 100 µM (inactive), the GI50 [6] was > 100 µM (inactive) and the GI50 [7] was 35.2 µM (inactive). The GI50 [8] was > 100 µM (inactive), the GI50 [9] was > 100 µM (inactive) and the GI50 [10] was > 100 µM (inactive). For the same compound, the GI50 [12] was greater than 100 µM, the GI50 [13] was 36 µM (inactive) and the GI50 [14] was > 100 µM (inactive). For the same compound, the GI50 [15] was > 100 µM (inactive), the GI50 [17] was > 100 µM (inactive) and the GI50 [18] was > 100 µM (inactive). For the same compound, the GI50 [19] was 28.1 µM (inactive), the GI50 [20] was > 100 µM (inactive) and the GI50 [21] was > 100 µM (inactive). The GI50 [22] was > 100 µM (inactive), the GI50 [57] was 65.5 µM (inactive) and the GI50 [58] was > 100 µM (inactive). The GI50 [23] was 74.6 µM (inactive), the GI50 [25] was 46.9 µM (inactive) and the GI50 [26] was 98.9 µM (inactive). The GI50 [27] was > 100 µM (inactive), the GI50 [28] was 38.3 µM (inactive) and the GI50 [29] was > 100 µM (inactive). For the same compound, the GI50 [30] was 53 µM (inactive), the GI50 [32] was 46 µM (inactive) and the GI50 [33] was > 100 µM (inactive). The GI50 [34] was > 100 µM (inactive), the GI50 [35] was > 100 µM (inactive) and the GI50 [36] was 33.8 µM (inactive). For the same compound, the GI50 [37] was 61.9 µM (inactive), the GI50 [38] was 68.9 µM (inactive) and the GI50 [39] was > 100 µM (inactive). The GI50 [40] was > 100 µM (inactive), the GI50 [41] was 91.2 µM (inactive) and the GI50 [42] was > 100 µM (inactive). The GI50 [43] was 27.4 µM (inactive), the GI50 [44] was > 100 µM (inactive) and the GI50 [45] was > 100 µM (inactive). The GI50 [46] was 56.8 µM (inactive), the GI50 [47] was 97.5 µM (inactive) and the GI50 [49] was > 100 µM (inactive). The GI50 [59] was > 100 µM (inactive), the GI50 [51] was 54.5 µM (inactive) and the GI50 [52] was > 100 µM (inactive). For the same compound, the GI50 [53] was > 100 µM (inactive) and the GI50 [54] was 82.8 µM (inactive).

For `CC1NCCc2c1[nH]c1cc(O)ccc21` (stereo unspecified), the GI50 [55] was > 100 µM (inactive), the GI50 [1] was > 100 µM (inactive) and the GI50 [2] was > 100 µM (inactive). For the same compound, the GI50 [56] was > 100 µM (inactive), the GI50 [3] was > 100 µM (inactive) and the GI50 [4] was > 100 µM (inactive). For the same compound, the GI50 [5] was > 100 µM (inactive), the GI50 [6] was > 100 µM (inactive) and the GI50 [7] was > 100 µM (inactive). The GI50 [9] was > 100 µM (inactive), the GI50 [10] was > 100 µM (inactive) and the GI50 [11] was > 100 µM (inactive). The GI50 [12] was greater than 100 µM, the GI50 [13] was > 100 µM (inactive) and the GI50 [14] was > 100 µM (inactive). The GI50 [15] was > 100 µM (inactive), the GI50 [16] was > 100 µM (inactive) and the GI50 [17] was > 100 µM (inactive). The GI50 [18] was > 100 µM (inactive), the GI50 [19] was > 100 µM (inactive) and the GI50 [20] was > 100 µM (inactive). For the same compound, the GI50 [21] was > 100 µM (inactive), the GI50 [22] was > 100 µM (inactive) and the GI50 [57] was > 100 µM (inactive). The GI50 [58] was > 100 µM (inactive), the GI50 [23] was > 100 µM (inactive) and the GI50 [25] was > 100 µM (inactive). For the same compound, the GI50 [26] was > 100 µM (inactive), the GI50 [27] was > 100 µM (inactive) and the GI50 [28] was > 100 µM (inactive). The GI50 [29] was > 100 µM (inactive), the GI50 [32] was > 100 µM (inactive) and the GI50 [33] was > 100 µM (inactive). For the same compound, the GI50 [34] was > 100 µM (inactive), the GI50 [35] was > 100 µM (inactive) and the GI50 [36] was > 100 µM (inactive). The GI50 [37] was > 100 µM (inactive), the GI50 [38] was > 100 µM (inactive) and the GI50 [39] was > 100 µM (inactive). The GI50 [40] was > 100 µM (inactive), the GI50 [41] was > 100 µM (inactive) and the GI50 [42] was > 100 µM (inactive). For the same compound, the GI50 [43] was > 100 µM (inactive), the GI50 [44] was > 100 µM (inactive) and the GI50 [45] was > 100 µM (inactive). The GI50 [46] was > 100 µM (inactive), the GI50 [47] was > 100 µM (inactive) and the GI50 [48] was > 100 µM (inactive). The GI50 [49] was > 100 µM (inactive), the GI50 [59] was > 100 µM (inactive) and the GI50 [51] was > 100 µM (inactive). For the same compound, the GI50 [52] was > 100 µM (inactive), the GI50 [53] was > 100 µM (inactive) and the GI50 [54] was > 100 µM (inactive).

From ChEMBL document CHEMBL1201862, “PubChem BioAssay data set” (2004)
